Source: patent US20190185829A1, “Preparation of lipase with improved ester synthesis activity by using surfactants” (Jiangnan University, priority 2017, published 2019)

Key:
Assay type in all cases: biochemical
[1] = molecular target: T1, Rhizoupus oryzae lipase ROL (Rhizopus oryzae, UniProt P61872); test: Hydrolytic activity of surfactant-treated lipase ROL using pNPP as substrate; conditions: protein 0.2 mg·mL^−1
T1 construct: purchased Sigma-Aldrich Co., Ltd
Text: (§1) (1) Determination of Hydrolytic Activity of the Lipase Using p-Nitrophenyl Palmitate (pNPP) as Substrate
(§2) Hydrolysis of pNPP catalyzed by lipase generates p-nitrophenol and palmitic acid. p-nitrophenol appears yellow in the buffer at pH 8.0 with the maximum absorption peak at 410 nm. Determination of hydrolytic activity can be achieved by measuring the absorbance at 410 nm.
(§3) The substrate solution A: 50 mmol·L^−1 sodium phosphate buffer (pH 8.0) containing 1.16 g·L^−1 sodium deoxycholate and 0.56 g·L^−1 arabic gum. Substrate solution B: 0.015 g pNPP is dissolved in 5 mL isopropyl alcohol. Substrate solution A and substrate solution B are mixed then stored for use afterwards.
(§4) Termination solution: 40 g·L^−1 NaOH, 93.05 g·L^−1 EDTA sodium. Add 62 uL termination solution to the reaction mixture when stopping the reaction.
(§5) Add 0.1 mL appropriately diluted enzyme solution, which is substituted by inactivated enzyme solution as the control, to 2.4 mL substrate solution above, incubate the mixture at 40° C. for 2 min and measure the absorbance at 410 nm.
(§6) one hydrolytic activity unit is defined as the amount of enzyme that catalyzes the formation of 1 μmol of p-nitrophenol in 1 minute at 40° C.
(§7) enzyme activity (U·mL^−1)=(V×A410×10^6)/(ε×t×V′) Calculation equation: […]
(§8) Specific activity: the activity of lipase per milligram of total protein in the lipase preparation. […]
(§9) Commercial lipase ROL was purchased from Sigma-Aldrich Co., Ltd. ROL is a non-immobilized lipase. Dissolve the ROL powder in water and centrifuge to obtain the supernatant containing the ROL lipase that would be regulated to improve its ester synthesis activity by adjusting the final protein concentration to 0.2 mg·mL^−1 and adding surfactants to the final concentration of 10 mM.
(§10) Commercial lipase ROL was purchased from Sigma-Aldrich Co., Ltd. and is a non-immobilized lipase. Dissolve the ROL powder in water, centrifuge to obtain the supernatant and treat the supernatant with different concentrations of surfactant LPC14 (the final protein concentration was 0.2 mg·mL^−1).

[2] = system: Rhizopus chinensis lipase r27RCL; test: Hydrolytic activity of surfactant-treated lipase r27RCL using pNPP as substrate; conditions: protein 0.2 mg·mL^−1
Text: as §1, §2, §3, §4, §5, §6, §7, §8
(§11) Commercial lipase r27RCL was purchased from Jiangsu Yiming Biological Technology Co., Ltd, which has high hydrolytic activity and low ester synthesis activity. Dissolve the r27RCL powder in water and centrifuge to obtain the supernatant containing the r27RCL lipase to adjust the ester synthesis activity (the final protein concentration was 0.2 mg·mL^−1 and the final concentration of surfactant was 10 mM, which is between 0.1×CMC^˜200×CMC of the different surfactants in Table 1).
(§12) Commercial lipase r27RCL was purchased from Jiangsu Yiming Biological Technology Co., Ltd. r27RCL is a lipase with high hydrolytic activity but low ester synthesis activity. Dissolve the r27RCL powder in water, centrifuge to obtain the supernatant and treat the supernatant with different concentrations of surfactant LPC14 (the final protein concentration was 0.2 mg·mL^−1).

[3] = molecular target: T2, Candida antarctica lipase CALB (Moesziomyces antarcticus, UniProt P41365); test: Hydrolytic activity of surfactant-treated lipase CALB using pNPP as substrate; conditions: surfactant 10 mM, protein 0.12 mg·mL^−1
T2 construct: purchased Sigma-Aldrich Co., Ltd
Text: as §1, §2, §3, §4, §5, §6, §7, §8
(§13) Commercial lipase CALB was purchased from Sigma-Aldrich Co., Ltd. CALB is a non-immobilized lipase. Dissolve the CALB powder in water and centrifuge to obtain the supernatant containing the CALB lipase that would be regulated to improve the ester synthesis activity by adjusting the final protein concentration to 0.12 mg·mL^−1 and adding surfactants to the final concentration of 10 mM.
(§14) Commercial lipase CALB was purchased from Sigma-Aldrich Co., Ltd. and is a non-immobilized lipase. Dissolve the CALB powder in water, centrifuge to obtain the supernatant and treat the supernatant with different concentrations of surfactant DDM (the final protein concentration was 0.12 mg·mL^−1).

[4] = molecular target: T3, Pseudomonas cepacia lipase PCL (Burkholderia cepacia, UniProt P22088); test: Ester synthesis activity of surfactant-treated lyophilized lipase PCL by GC analysis; conditions: surfactant 10 mM, protein 0.2 mg·mL^−1
T3 construct: purchased Sigma-Aldrich Co., Ltd
Experimental: (§15) (2) Determination of Ester Synthesis Activity of the Lipase by GC Analysis
(§16) Substrate solution A: 48.5 mL of n-octanoic acid is dissolved in 250 mL of n-heptane in a volumetric flask.
(§17) Substrate solution B: 17.5 mL of absolute ethanol is dissolved in 250 mL of n-heptane in a volumetric flask.
(§18) Internal standard: 2-hexanol/n-heptane (35 g·L^−1).
(§19) Standard sample: 10 g of n-octanoate is dissolved in 1000 mL of n-heptane in a volumetric flask.
(§20) 1 mL substrate solution A and substrate solution B are added in a 5 mL Eppendorf tube respectively, then 20 mg lipase powder (or lyophilized powder) is added. The reaction is carried out at 40° C. and with shaking at 150 rpm for 30 min. Remove the lipase powder by centrifugation or membrane filtration. Then 0.1 mL of internal standard is added in 0.4 mL of filtrate or supernatant and mixed. Measure the content of n-octanoate in the mixture above by GC analysis.
(§21) The gas chromatograph (6820, Agilent Instruments) is equipped with a AC20 (PEG20000) capillary column and a FID detector. Nitrogen was used as the carrier gas. The oven temperature was programmed to start at 90° C. for 1 min and then be elevated to 200° C. for 5 min at 10° C.·min^−1. The injector and detector temperatures were set at 250° C.
(§22) Definition of enzyme activity: One unit of ester synthesis activity is defined as the amount of enzyme that esterifies 1 micromole of n-octanoate per min.
(§23) Specific activity: the activity of lipase per milligram of total protein in the lipase preparation.
(§24) Total recovery: the percentage of the activity after a treatment to that before the treatment
(§25) Add an equal volume of high-concentration surfactant solution into the enzyme solution. The final protein concentration was […] and the surfactant concentration was 10 mM. After mixed thoroughly, the mixture was lyophilized and kept in dry condition.
(§26) Commercial lipase PCL was purchased from Sigma-Aldrich Co., Ltd. PCL is a non-immobilized lipase. Dissolve the PCL powder in water and centrifuge to obtain the supernatant containing the PCL lipase that would be regulated to improve the ester synthesis activity by adjusting the final protein concentration to 0.2 mg·mL^−1 and adding surfactants to the final concentration of 10 mM.
(§27) Commercial lipase PCL was purchased from Sigma-Aldrich Co., Ltd. and is a non-immobilized lipase. Dissolve the PCL powder in water, centrifuge to obtain the supernatant and treat the supernatant with different concentrations of surfactant DDM (the final protein concentration was 0.2 mg·mL^−1).

[5] = molecular target: T2, Candida antarctica lipase CALB; test: Ester synthesis activity of surfactant-treated lyophilized lipase CALB by GC analysis; conditions: surfactant 10 mM, protein 0.12 mg·mL^−1
Experimental: as §15, §16, §17, §18, §19, §20, §21, §22, §23, §24, §25, §13, §14

[6] = molecular target: T1, Rhizoupus oryzae lipase ROL; test: Ester synthesis activity of surfactant-treated lyophilized lipase ROL by GC analysis; conditions: protein 0.2 mg·mL^−1
Experimental: as §15, §16, §17, §18, §19, §20, §21, §22, §23, §24, §25, §9, §10

[7] = system: Rhizopus chinensis lipase r27RCL; test: Ester synthesis activity of surfactant-treated lyophilized lipase r27RCL by GC analysis; conditions: protein 0.2 mg·mL^−1
Experimental: as §15, §16, §17, §18, §19, §20, §21, §22, §23, §24, §25, §11, §12

[8] = molecular target: T3, Pseudomonas cepacia lipase PCL; test: Hydrolytic activity of surfactant-treated lipase PCL using pNPP as substrate; conditions: surfactant 10 mM, protein 0.2 mg·mL^−1
Text: as §1, §2, §3, §4, §5, §6, §7, §8, §26, §27

[9] = surfactant concentration 0.1 x CMC
[10] = surfactant concentration 1 x CMC
[11] = surfactant concentration 10 x CMC
[12] = surfactant concentration 100 x CMC

T2 sequence (P41365 26-342): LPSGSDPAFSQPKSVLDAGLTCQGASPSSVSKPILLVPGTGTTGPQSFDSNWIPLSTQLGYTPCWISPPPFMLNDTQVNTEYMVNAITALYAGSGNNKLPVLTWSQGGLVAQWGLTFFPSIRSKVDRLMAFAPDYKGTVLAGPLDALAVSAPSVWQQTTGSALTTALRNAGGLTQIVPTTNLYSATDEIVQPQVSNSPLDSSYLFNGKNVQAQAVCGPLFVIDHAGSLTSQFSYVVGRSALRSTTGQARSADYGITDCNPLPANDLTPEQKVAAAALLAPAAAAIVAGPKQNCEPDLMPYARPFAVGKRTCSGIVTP
T1 sequence (P61872 96-392): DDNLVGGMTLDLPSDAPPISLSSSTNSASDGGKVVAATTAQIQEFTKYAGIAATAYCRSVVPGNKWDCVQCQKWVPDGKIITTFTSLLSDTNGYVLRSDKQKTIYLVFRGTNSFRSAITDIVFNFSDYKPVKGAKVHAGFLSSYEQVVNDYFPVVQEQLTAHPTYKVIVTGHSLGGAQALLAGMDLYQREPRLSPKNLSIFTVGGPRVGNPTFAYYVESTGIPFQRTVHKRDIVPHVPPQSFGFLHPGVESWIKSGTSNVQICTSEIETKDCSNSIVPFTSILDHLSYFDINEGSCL
T3 sequence (P22088 45-364): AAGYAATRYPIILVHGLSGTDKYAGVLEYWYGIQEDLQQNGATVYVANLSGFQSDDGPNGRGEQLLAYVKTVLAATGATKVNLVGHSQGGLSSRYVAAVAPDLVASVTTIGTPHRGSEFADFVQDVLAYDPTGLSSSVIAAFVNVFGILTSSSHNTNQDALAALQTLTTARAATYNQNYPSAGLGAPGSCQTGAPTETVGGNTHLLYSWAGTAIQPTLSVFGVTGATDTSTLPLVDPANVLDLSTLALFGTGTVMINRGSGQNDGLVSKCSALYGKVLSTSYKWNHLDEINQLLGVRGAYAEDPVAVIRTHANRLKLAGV

Structure (SMILES): CCCCCCCCCCCCCC(=O)OCC(O)COP(=O)([O-])OCC[N+](C)(C)C (stereo not drawn) [LPC14, 1-myristyl 2-acyl-cis-propyltri-phosphatidylcholine]
- Hydrolytic activity, Specific activity ([1]; surfactant 10 mM): 33.1 U · mg^−1
- Hydrolytic activity, Total recovery ([1]; surfactant 10 mM): 106%
- Hydrolytic activity, Specific activity [1, 9]: 28.7 U · mg^−1
- Hydrolytic activity, Total recovery [1, 9]: 150%
- Hydrolytic activity, Specific activity [1, 10]: 27.7 U · mg^−1
- Hydrolytic activity, Total recovery [1, 10]: 139%
- Hydrolytic activity, Specific activity [1, 11]: 31.2 U · mg^−1
- Hydrolytic activity, Total recovery [1, 11]: 162%
- Hydrolytic activity, Specific activity [1, 12]: 39.0 U · mg^−1
- Hydrolytic activity, Total recovery [1, 12]: 206%
- Hydrolytic activity, Total recovery ([2]; surfactant 10 mM): 97%
- Hydrolytic activity, Specific activity [2, 9]: 120.2 U · mg^−1
- Hydrolytic activity, Total recovery [2, 9]: 101%
- Hydrolytic activity, Specific activity [2, 10]: 122.2 U · mg^−1
- Hydrolytic activity, Total recovery [2, 10]: 102%
- Hydrolytic activity, Specific activity [2, 11]: 128.0 U · mg^−1
- Hydrolytic activity, Total recovery [2, 11]: 107%
- Hydrolytic activity, Specific activity [2, 12]: 125.7 U · mg^−1
- Hydrolytic activity, Total recovery [2, 12]: 102%
- Hydrolytic activity, Specific activity [3]: 0.54 U · mg^−1
- Hydrolytic activity, Total recovery [3]: 38%
- Ester synthesis activity, Specific activity [4]: 44.6 U · mg^−1
- Ester synthesis activity, Specific activity [5]: 36.8 U · mg^−1
- Ester synthesis activity, Specific activity ([6]; surfactant 10 mM): 12.2 U · mg^−1
- Ester synthesis activity, Specific activity [6, 9]: 0.4 U · mg^−1
- Ester synthesis activity, Total recovery [6, 9]: 97%
- Ester synthesis activity, Specific activity [6, 10]: 0.2 U · mg^−1
- Ester synthesis activity, Total recovery [6, 10]: 46%
- Ester synthesis activity, Specific activity [6, 11]: 1.0 U · mg^−1
- Ester synthesis activity, Total recovery [6, 11]: 240%
- Ester synthesis activity, Specific activity [6, 12]: 6.2 U · mg^−1
- Ester synthesis activity, Specific activity ([7]; surfactant 10 mM): 47.6 U · mg^−1
- Ester synthesis activity, Specific activity [7, 9]: 1.8 U · mg^−1
- Ester synthesis activity, Total recovery [7, 9]: 32%
- Ester synthesis activity, Specific activity [7, 10]: 1.4 U · mg^−1
- Ester synthesis activity, Total recovery [7, 10]: 25%
- Ester synthesis activity, Specific activity [7, 12]: 17.1 U · mg^−1
- Ester synthesis activity, Total recovery [7, 12]: 292%
- Hydrolytic activity, Specific activity [8]: 321.8 U · mg^−1
- Hydrolytic activity, Total recovery [8]: 119%

Structure (SMILES): CCCCCCCCCCCCOCCOCCOCCOCCOCCOCCOCCOCCO [C12E8, octaethylene glycol monododecyl ether]
- Hydrolytic activity, Specific activity ([1]; surfactant 10 mM): 23.7 U · mg^−1
- Hydrolytic activity, Total recovery ([1]; surfactant 10 mM): 82%
- Hydrolytic activity, Specific activity ([2]; surfactant 10 mM): 117.1 U · mg^−1
- Hydrolytic activity, Total recovery ([2]; surfactant 10 mM): 101%
- Hydrolytic activity, Specific activity [3]: 0 U · mg^−1
- Hydrolytic activity, Total recovery [3]: 0%
- Ester synthesis activity, Specific activity [4]: 4.6 U · mg^−1
- Ester synthesis activity, Total recovery [4]: 130%
- Ester synthesis activity, Specific activity [5]: 62.8 U · mg^−1
- Ester synthesis activity, Specific activity ([6]; surfactant 10 mM): 2.6 U · mg^−1
- Ester synthesis activity, Specific activity ([7]; surfactant 10 mM): 22.2 U · mg^−1
- Hydrolytic activity, Specific activity [8]: 281.1 U · mg^−1
- Hydrolytic activity, Total recovery [8]: 98%
